“And” between values parts separate entries of the source, which are not always exact repeats. Equal entries are not always repeated.
Columns and labels:
mTORC1 = mTORC1 activation (phosphorylated S6K1 Thr389 immunoblot) in leucine-starved HEK-293T cells; type: cell-based, human
Procedure: Expression of flag-WDR24 allows for immunoprecipitation of the Sestrin2/GATOR2 complex from amino acid-starved cells with an anti-flag antibody. […] Finally, to determine whether Sestrins and the GATOR pathway are required for NV-5138 activity, HEK-293T cells null for all three Sestrin isoforms or the GATOR1 component Nprl3 were obtained.
All cell lines were cultured in DMEM supplemented with 10% FBS and maintained at 37 °C and 5% CO2. HEK-293T cells stably expressing Flag-WDR24 was generated as previously described. […] Details of reagent used for cell culture can be found in Supplementary Information.
Cell lysates were prepared as previously described. Lysates were cleared by centrifugation at 13,200 rpm at 4 °C for 8 min. For anti-FLAG IPs, the FLAG-M2 affinity gel was added to approximately 2 mg of lysates and incubated with rotation for 3 h at 4 °C. Following IP, the beads were washed one time with Triton wash buffer containing 500 mM NaCl. […] After compound incubation, IPs were collected by centrifugation. Immunoprecipitated proteins were denatured and, resolved by SDS-PAGE. Membranes were imaged using the LI-COR imaging system. Reagents and antibodies used are listed in Supplementary Information.

Sestrin2 [1] = target: T1, Sestrin2 (Homo sapiens, UniProt P58004); assay: Thermal shift assay of purified Sestrin2; type: binding; design: Full-length, codon-optimized human Sestrin2 was cloned into a pMAL6H -C5XT bacterial expression vector; His6-MBP (TEV-cleavable) (N, cleaved yes); made in house; host or cells: Escherichia coli LOBSTR (DE3); conditions: average +/- SD, n = 3, read-out: Average Tm shift; for ΔTm at 1 µM: compound concentration 1 µM; for ΔTm at 10 µM: compound concentration 10 µM; for ΔTm at 100 µM: compound concentration 100 µM
T1 sequence (P58004 1-480): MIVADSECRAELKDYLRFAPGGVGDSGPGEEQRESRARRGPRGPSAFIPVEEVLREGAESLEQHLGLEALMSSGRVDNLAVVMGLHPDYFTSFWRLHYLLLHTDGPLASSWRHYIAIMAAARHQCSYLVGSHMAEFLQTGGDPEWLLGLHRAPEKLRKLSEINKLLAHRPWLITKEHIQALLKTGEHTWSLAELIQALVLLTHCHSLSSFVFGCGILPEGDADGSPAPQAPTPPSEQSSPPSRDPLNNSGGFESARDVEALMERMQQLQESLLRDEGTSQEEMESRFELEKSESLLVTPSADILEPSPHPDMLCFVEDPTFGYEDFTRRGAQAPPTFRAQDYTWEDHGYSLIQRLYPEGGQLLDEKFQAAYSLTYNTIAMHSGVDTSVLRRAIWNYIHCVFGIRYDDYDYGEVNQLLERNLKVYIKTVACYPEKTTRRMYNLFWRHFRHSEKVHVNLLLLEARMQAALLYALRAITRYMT
Procedure: Accordingly, we synthesized novel binding ligands incorporating these structural features. These compounds were tested for Sestrin2 binding using a thermal shift assay and for their ability to activate mTORC1 in leucine-starved Human Embryonic Kidney (HEK)-293T cells. These studies led to the identification of NV-5138 – a novel small molecule activator of mTORC1 signaling (Fig. 1a).
Full-length, codon-optimized human Sestrin2 was cloned into a pMAL6H -C5XT bacterial expression vector. Protein was purified onto a HisTrap FF crude column (GE Healthcare) followed by anion exchange chromatography then further purified via size-exclusion chromatography. Further details can be found in Supplementary Information.
Full-length, codon-optimized human Sestrin2 was cloned into a pMAL6H -C5XT bacterial expression vector such that Sestrin2 became N-terminally fused with a Tobacco Etch Virus nuclear-inclusion-a endopeptidase (TEV)–cleavable His6-MBP tag. This vector was transformed into Escherichia coli LOBSTR (DE3) cells (Kerafast) ^1. Cells were grown at 37 °C to 0.6 OD, then protein production was induced with 0.2 mM IPTG at 18 °C for 12–14 h. Cells were collected by centrifugation at 6,000g, resuspended in lysis buffer (50 mM Tris-HCl, pH 8.5, 400 mM NaCl, 5 mM MgCl2, 1 mM dithiothreitol (DTT), 0.2% CHAPS, 10% glycerol and 1 tablet of protease inhibitor tablets per 50 ml (Complete Inhibitor tablets from Roche w/o EDTA)), homogenized and sonicated. The lysate was cleared by centrifugation at 15,000g for 45 min. The soluble fraction (~250 ml) was loaded onto a HisTrap FF crude column (GE Healthcare) at 2 ml/min followed by washing with lysis buffer at 4 ml/min. After washing, the protein was eluted in lysis buffer containing 300 mM imidazole at 4 ml/min. Fractions corresponding to the Sestrin2 protein were identified via SDS-PAGE and pooled. The eluted Sestrin2 was then incubated with TEV protease and dialyzed overnight at 4 °C into 50 mM Tris-HCl, pH 8.5, 400 mM NaCl, 5 mM MgCl2, 1 mM dithiothreitol (DTT), 0.1% CHAPS, 10% glycerol. To separate the N-terminal tag from the cleaved Sesrin2, from cleaved sample was then re-applied to the HisTrap FF crude column and flow-through collected. The protein was then subjected to anion exchange chromatography on an 8ml Mono Q column (GE Healthcare) with a linear NaCl gradient and then further purified via size-exclusion chromatography on a Superdex S200 26/60 column (GE Healthcare) equilibrated in running buffer (50 mM Hepes pH 7.4, 200 mM NaCl, 1 mM DTT, 2.5 mM MgCl2, and 5% glycerol).

Sestrin2 [2] = target: T1, Sestrin2; assay: Isothermal titration calorimetry (ITC) on Sestrin2; type: binding; design: Full-length, codon-optimized human Sestrin2 was cloned into a pMAL6H -C5XT bacterial expression vector; His6-MBP (TEV-cleavable) (N, cleaved yes); made in house; host or cells: Escherichia coli LOBSTR (DE3); conditions: for Kd: estimated, Sestrin2 pre-exchanged with methionine
Procedure: Details of NV-5138 synthesis and protein preparation for ITC can be found in Supplementary Information.
For this exchange procedure ion exchange chromatography was used using the following buffers:
Buffer-A: HEPES 20mM pH 7.4, βME 5mM, Buffer-B: HEPES 20mM pH 7.4, βME 5mM, Methionine 5mM, Buffer-C: HEPES 20mM pH 7.4, βME 5mM, NaCl 1M. Sestrin2 (6 mg) was diluted to 5ml with buffer-A, and loaded on a MonoQ HR 5/50 column equilibrated in buffer-A. The column was washed with 2-3 column volume (CV) of buffer-A followed by 130 ml of buffer-B. The protein was then eluted in steps of 300 mM, 500 mM, and 1 M NaCl in buffer-C. The protein eluted in the 300 mM NaCl fractions and was concentrated to 7.6 mg/ml.

Row | Compound | mTORC1 activation (pS6K1) (mTORC1; leucine-starved unedited HEK-293T cells) | ΔTm at 1 µM (Sestrin2 [1]) [°C] | ΔTm at 10 µM (Sestrin2 [1]) [°C] | ΔTm at 100 µM (Sestrin2 [1]) [°C] | Kd (Sestrin2 [2]) | mTORC1 activation (pS6K1) (mTORC1; leucine-starved HEK-293T cells null for all three Sestrin isoforms) | mTORC1 activation (pS6K1) (mTORC1; leucine-starved HEK-293T cells null for the GATOR1 component Nprl3) | molar stoichiometry (ITC) (Sestrin2 [2])
1 | CC(C)(C[C@H](N)C(=O)O)C(F)F [NV-5138, (S)-2-amino-5,5-difluoro-4,4-dimethylpentanoic acid] | activates mTORC1 | 0.57 ± 0.22 | 3.27 ± 0.16 | 6.17 ± 0.18 | 1500 nM and 1490 nM | – | – | –
2 | CC(C)C[C@H](N)C(=O)O [Leucine, L-leucine, reference compound] | – | 0.61 ± 0.59 | 3.64 ± 0.41 | 6.49 ± 0.2 | 1600 nM and 1550 nM | refractory | refractory | 1
